# Assay results from patent publication US20260209152A1, “Substituted Hydroxystilbene Compounds and Derivatives, Synthesis and Uses Thereof” (Kynan Duke IP, LLC, priority 2019, published 2026).
# Like-named read-outs stand apart in the source and are kept apart here.
# What was measured:
# Assay in all cases: CellTiter Glo cell viability assay
# Assay type in all cases: cell-based, human
# Lung NCI-H1573 = settings: for IC50: Homo sapiens
# In short: (§1)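 Cells seeded at 1.7*10^3/well in quadruplicate; compounds at 18 two-fold dilutions from 5 μM (0.000038146-5 μM), or at 1, 2, 5, 10 and 20 μM. CellTiter Glo luminescence read on days 1, 3 and 5 after treatment. IC50 by nonlinear regression of luminescence versus log dose.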
# Bladder T24 = settings: for IC50: Homo sapiens
# In short: as §1
# Liver SNU-423 = settings: for IC50: Homo sapiens
# In short: as §1
# Pharynx DETROIT = settings: for IC50: Homo sapiens
# In short: as §1
# Pharynx FADU = settings: for IC50: Homo sapiens
# In short: as §1
# Ewing's Sarcoma HTB-166 = settings: for IC50: Homo sapiens
# In short: as §1
# Kidney Caki-2 = settings: for IC50: Homo sapiens
# In short: as §1
# [1] = test system: Hypo-pharynx UPCI: SCC152; settings: for IC50: Homo sapiens
# In short: as §1
# Kidney Caki-1 = settings: for IC50: Homo sapiens
# In short: as §1
# Liver SNU-398 = settings: for IC50: Homo sapiens
# In short: as §1
# Pancreatic BxPC3 = settings: for IC50: Homo sapiens
# In short: as §1
# Bladder UMUC_3 = settings: for IC50: Homo sapiens
# In short: as §1
# Liver HepG2 = settings: for IC50: Homo sapiens
# In short: as §1
# Tongue UPCI: SCC090 = settings: for IC50: Homo sapiens
# In short: as §1
# Lung NCI-H1437 = settings: for IC50: Homo sapiens
# In short: as §1
# Lung NCI-H2126 = settings: for IC50: Homo sapiens
# In short: as §1
# Bladder HT-1197 = settings: for IC50: Homo sapiens
# In short: as §1
# Bladder SCABER = settings: for IC50: Homo sapiens
# In short: as §1
# Pancreatic HPAFII = settings: for IC50: Homo sapiens
# In short: as §1
# Tongue SCC-4 = settings: for IC50: Homo sapiens
# In short: as §1
# Rhabomyosarcoma TE 159.T = test system: Rhabomyosarcoma TE 159.T
# In short: as §1
# [2] = IC50 of 1 [KYN-001] vs 8 [KYN-119], 3 Days
# [3] = 72 h, 3 Days of treatment, 18 2-fold dilutions 5-0.00003 μM, read-out: Average IC50
compound,measurement,setting,value
"CCOc1cc(O)cc(/C=C/c2ccc(O)c(OC)c2)c1CC=C(C)C [Compound 8, (E)-3-Ethoxy-5-(4-hydroxy-3-methoxystyryl)-4-(3-methylbut-2-en-1-yl)phenol]",IC50,"Lung NCI-H1573; NCI-H1573, 72 h, 3 Days of treatment, 18 2-fold dilutions 5-0.00003 μM, read-out: Average IC50",0.0205 µM
same,IC50,"Lung NCI-H1573; NCI-H1573/CRL-5877, 11 dilutions 3-0.00001 μM, read-out: IC50",0.0335 µM
same,Fold IC50,Lung NCI-H1573; [2],11
same,IC50,Bladder T24; [3],0.0225 µM
same,IC50,"Bladder T24; T24/HTB-4, 11 dilutions 3-0.00001 μM, read-out: IC50",0.0611 µM
same,Fold IC50,Bladder T24; [2],5.8
same,IC50,"Liver SNU-423; SNU-423, 72 h, 3 Days of treatment, 18 2-fold dilutions 5-0.00003 μM, read-out: Average IC50",0.00623 µM
same,IC50,"Liver SNU-423; SNU-423/CRL-2238, 11 dilutions 3-0.00001 μM, read-out: IC50",0.0797 µM
same,Fold IC50,Liver SNU-423; [2],5.4
same,IC50,Pharynx DETROIT; [3],0.438 µM
same,IC50,"Pharynx DETROIT; Detroit 562/CCL-138, 11 dilutions 3-0.00001 μM, read-out: IC50",0.0766 µM
same,Fold IC50,Pharynx DETROIT; [2],2.7
same,IC50,"Pharynx FADU; FaDu, 72 h, 3 Days of treatment, 18 2-fold dilutions 5-0.00003 μM, read-out: Average IC50",0.0371 µM
same,IC50,"Pharynx FADU; Fadu/HTB-43, 11 dilutions 3-0.00001 μM, read-out: IC50",0.0541 µM
same,Fold IC50,Pharynx FADU; [2],2.0
same,IC50,Ewing's Sarcoma HTB-166; [3],0.0492 µM
same,IC50,"Ewing's Sarcoma HTB-166; RD-ES/HTB-166, 11 dilutions 3-0.00001 μM, read-out: IC50",0.163 µM
same,Fold IC50,Ewing's Sarcoma HTB-166; [2],5.2
same,IC50,"Kidney Caki-2; CAKI-2, 72 h, 3 Days of treatment, 18 2-fold dilutions 5-0.00003 μM, read-out: Average IC50",0.281 µM
same,IC50,"Kidney Caki-2; Caki-2/HTB-47, 11 dilutions 3-0.00001 μM, read-out: IC50",0.524 µM
same,Fold IC50,Kidney Caki-2; [2],4.0
same,IC50,[1]; [3],0.023 µM
same,IC50,"[1]; UPCI: SCC152/CRL-3240, 11 dilutions 3-0.00001 μM, read-out: IC50",0.0549 µM
same,Fold IC50,[1]; [2],2.0
same,IC50,"Kidney Caki-1; CAKI-1, 72 h, 3 Days of treatment, 18 2-fold dilutions 5-0.00003 μM, read-out: Average IC50",0.0089 µM
same,IC50,"Kidney Caki-1; Caki-1/HTB-46, 11 dilutions 3-0.00001 μM, read-out: IC50",0.0279 µM
same,Fold IC50,Kidney Caki-1; [2],12
same,IC50,"Liver SNU-398; SNU-398, 72 h, 3 Days of treatment, 18 2-fold dilutions 5-0.00003 μM, read-out: Average IC50",0.00815 µM
same,IC50,"Liver SNU-398; SNU-398/CRL-2233, 11 dilutions 3-0.00001 μM, read-out: IC50",0.0746 µM
same,Fold IC50,Liver SNU-398; [2],5.3
same,IC50,"Pancreatic BxPC3; BXPC-3, 72 h, 3 Days of treatment, 18 2-fold dilutions 5-0.00003 μM, read-out: Average IC50",0.355 µM
same,IC50,"Pancreatic BxPC3; BxPC-3/CRL-1687, 11 dilutions 3-0.00001 μM, read-out: IC50",0.387 µM
same,Fold IC50,Pancreatic BxPC3; [2],3.0
same,IC50,"Bladder UMUC_3; UMUC3, 72 h, 3 Days of treatment, 18 2-fold dilutions 5-0.00003 μM, read-out: Average IC50",0.00548 µM
same,IC50,"Bladder UMUC_3; UMUC3, UM-UC-3/CRL-1749, 11 dilutions 3-0.00001 μM, read-out: IC50",0.0548 µM
same,Fold IC50,Bladder UMUC_3; [2],5.7
same,IC50,"Liver HepG2; HepG2, 72 h, 3 Days of treatment, 18 2-fold dilutions 5-0.00003 μM, read-out: Average IC50",0.0202 µM
same,IC50,"Liver HepG2; HepG2, Hep G2/HB-8065, 11 dilutions 3-0.00001 μM, read-out: IC50",0.296 µM
same,Fold IC50,Liver HepG2; [2],11
same,IC50,Tongue UPCI: SCC090; [3],0.026 µM
same,IC50,"Tongue UPCI: SCC090; UPCI: SCC090/CRL-3239, 11 dilutions 3-0.00001 μM, read-out: IC50",0.0005 µM
same,Fold IC50,Tongue UPCI: SCC090; [2],3.5
same,IC50,"Lung NCI-H1437; NCI-H1437, 72 h, 3 Days of treatment, 18 2-fold dilutions 5-0.00003 μM, read-out: Average IC50",0.0166 µM
same,IC50,"Lung NCI-H1437; NCI-H1437/CRL-5872, 11 dilutions 3-0.00001 μM, read-out: IC50",0.0327 µM
same,Fold IC50,Lung NCI-H1437; [2],21
same,IC50,"Lung NCI-H2126; NCI-H2126, 72 h, 3 Days of treatment, 18 2-fold dilutions 5-0.00003 μM, read-out: Average IC50",0.00173 µM
same,IC50,"Lung NCI-H2126; NCI-H2126/CCL-256, 11 dilutions 3-0.00001 μM, read-out: IC50",0.0331 µM
same,Fold IC50,Lung NCI-H2126; [2],44
same,IC50,"Bladder HT-1197; HT1197, 72 h, 3 Days of treatment, 18 2-fold dilutions 5-0.00003 μM, read-out: Average IC50",0.0115 µM
same,IC50,"Bladder HT-1197; HT1197, HT-1197/CRL-1473, 11 dilutions 3-0.00001 μM, read-out: IC50",0.0485 µM
same,Fold IC50,Bladder HT-1197; [2],22
same,IC50,"Bladder SCABER; SCaBER, 72 h, 3 Days of treatment, 18 2-fold dilutions 5-0.00003 μM, read-out: Average IC50",0.0101 µM
same,IC50,"Bladder SCABER; SCaBER/HTB-3, 11 dilutions 3-0.00001 μM, read-out: IC50",0.0273 µM
same,Fold IC50,Bladder SCABER; [2],3.3
same,IC50,"Pancreatic HPAFII; HPAF-II, 72 h, 3 Days of treatment, 18 2-fold dilutions 5-0.00003 μM, read-out: Average IC50",0.403 µM
same,IC50,"Pancreatic HPAFII; HPAF-II/CRL-1997, 11 dilutions 3-0.00001 μM, read-out: IC50",0.242 µM
same,Fold IC50,Pancreatic HPAFII; [2],2.7
same,IC50,"Tongue SCC-4; SCC-4, 72 h, 3 Days of treatment, 18 2-fold dilutions 5-0.00003 μM, read-out: Average IC50",0.0239 µM
same,IC50,"Tongue SCC-4; SCC-4/CRL-1624, 11 dilutions 3-0.00001 μM, read-out: IC50",0.0232 µM
same,Fold IC50,Tongue SCC-4; [2],4.2
same,IC50,"Rhabomyosarcoma TE 159.T; Homo sapiens, 72 h, 3 Days of treatment, 18 2-fold dilutions 5-0.00003 μM, read-out: Average IC50",0.0196 µM
same,Fold IC50,Rhabomyosarcoma TE 159.T; [2],7.5
